Measured values taken from ChEMBL document CHEMBL2157938, “Use of structure based design to increase selectivity of pyridyl-cinnoline phosphodiesterase 10A (PDE10A) inhibitors against phosphodiesterase 3 (PDE3)” (Bioorg Med Chem Lett, 2012).

Legend:
[1] = Inhibition of mouse PDE10A7 using fluorescein labeled CAMP as substrate incubated for 30 mins prior to substrate addition measured after 30 mins by fluorescence polarization assay
[2] = Inhibition of PDE3
[3] = Selectivity ratio of IC50 for PDE3 to IC50 for mouse PDE10A7
[4] = Clearance in rat liver microsomes; format: ADME, Microsome; details: read-out: CLH
[5] = Half life in rat at 1 mg/kg, iv and 5 mg/kg, po; format: ADME, organism-based; details: in vivo
[6] = Oral bioavailability in rat at 5 mg/kg; format: ADME, organism-based; details: in vivo
[7] = Clearance in rat at 1 mg/kg, iv and 5 mg/kg, po; format: ADME, organism-based; details: in vivo

SMILES | IC50 [1] [nM] | IC50 [2] [nM] | Ratio IC50 [3] | microsomal CLint [4] [µL/min/mg] | half-life [5] [h] | bioavailability [6] [%] | clearance [7] [mL/min/kg]
COc1cc2c(-c3cnc(N4CCC(C(C)(C)O)CC4)c(C)c3)cnnc2cc1OCC1CC1 | 19.1 | > 10000 | > 523 |  |  |  | 
COc1cc2nncc(-c3ccc(NC(C)C)nc3)c2cc1OC | 7.6 |  |  |  |  |  | 
COc1cc2nncc(-c3cnc(N4CCC(C(C)(C)O)CC4)c(C)c3)c2cc1N(C)C | 4500 | > 10000 |  |  |  |  | 
COc1cc2nncc(-c3cnc(N4CCC(C(C)(C)O)CC4)c(C)c3)c2cc1C | 25.6 | 25100 | 980 |  |  |  | 
COc1cc2cncc(-c3cnc(N4CCC(C(C)(C)O)CC4)c(C)c3)c2cc1OC | 13.4 |  |  | 69 |  |  | 
COc1cc2nncc(-c3cnc(N4CCC(C(C)(C)O)CC4)c(C)c3)c2cc1OC |  | 1700 | 347 |  | 1.54 | 60 | 
COc1cc2c(-c3cnc(N4CCC(C(C)(C)O)CC4)c(C)c3)cnnc2cc1OC(F)F | 68.6 | 15900 | 231 |  |  |  | 
COc1cc2nncc(-c3cnc(N4CCC(C(C)(C)O)CC4)c(C4CC4)c3)c2cc1OC | 1.3 | 2980 | 2290 |  |  |  | 
CCOc1cc2c(-c3cnc(N4CCC(C(C)(C)O)CC4)c(C)c3)cnnc2cc1C | 40.9 | > 10000 | > 244 |  |  |  | 
CCn1cc(-c2cnc(N3CCC(C(C)(C)O)CC3)c(C)c2)c2cc(OC)c(OC)cc2c1=O | 13.8 |  |  | 50 |  |  | 
COc1cc2nccc(-c3cnc(N4CCC(C(C)(C)O)CC4)c(C)c3)c2cc1OC | 11.9 |  |  | 57 |  |  | 
COc1cc2snc(-c3ccc(NC(C)C)nc3)c2cc1OC | 1090 |  |  |  |  |  | 
COc1cc2nncc(-c3cnc(N4CCC(C(C)(C)O)CC4)c(Cl)c3)c2cc1OC | 6.3 | 2250 | 357 |  |  |  | 
COc1cc2nncc(-c3cnc(N4CCC(C(C)(C)O)CC4)c(C(F)F)c3)c2cc1OC | 1.2 | 6630 | 5520 |  | 2.08 | 46 | 
COc1cc2c(-c3cnc(N4CCC(C(C)(C)O)CC4)c(C)c3)cnnc2cc1F | 132 | > 10000 | > 75 |  |  |  | 
COc1cc2nncc(-c3cnc(N4CCC(C(C)(C)O)CC4)c(C)c3)c2cc1OC1CC1 | 4.1 | 17900 | 4360 |  | 1.48 | 32 | 15.5
COc1cc2ccnc(-c3ccc(NC(C)C)nc3)c2cc1OC | 47 |  |  |  |  |  | 
